Assay results from patent US11512053B2, “Arginine methyltransferase inhibitors and uses thereof” (priority 2013, dated 2022).
Like-named read-outs stand apart in the source and are kept apart here.

What was measured:
[1] = tested on: mono-methyl arginine in RKO cells; experiment: RKO Methylation Assay, In Cell Western (ICW) for detection of mono-methyl arginine and DNA content; format: cell-based; conditions: Homo sapiens, RKO, 72 h, RKO cells, read-out: In Cell Western EC30
Excerpt: RKO adherent cells were purchased from ATCC (American Type Culture Collection), Manassas, Va., USA. DMEM/Glutamax medium, penicillin-streptomycin, heat inactivated fetal bovine serum, 0.05% trypsin and D-PBS were purchased from Life Technologies, Grand Island, N.Y., USA. Odyssey blocking buffer, 800 CW goat anti-rabbit IgG (H+L) antibody, and Licor Odyssey infrared scanner were purchased from Licor Biosciences, Lincoln, Nebr., USA. Mono-methyl arginine antibody was purchased from Cell Signaling Technology, Danvers, Mass., USA. Methanol was purchased from VWR, Franklin, Mass., USA. 10% Tween 20 was purchased from KPL, Inc., Gaithersburg, Md., USA. DRAQ5 was purchased from Biostatus Limited, Leicestershire, UK.
RKO adherent cells were maintained in growth medium (DMEM/Glutamax medium supplemented with 10% v/v heat inactivated fetal bovine serum and 100 units/mL penicillin-streptomycin) and cultured at 37° C. under 5% CO2.
Cell treatment, In Cell Western (ICW) for detection of mono-methyl arginine and DNA content. […] Compound (100 nL) from a 96-well source plate was added directly to 384 well cell plate. Plates were incubated at 37° C., 5% CO2 for 72 hours. After three days of incubation, plates were brought to room temperature outside of the incubator for ten minutes and blotted on paper towels to remove cell media. 50 μL of ice cold 100% methanol was added directly to each well and incubated for 30 min at room temperature. After 30 min, plates were transferred to a Biotek EL406 plate washer and washed 2 times with 100 μL per well of wash buffer (1×PBS). Next 60 μL per well of Odyssey blocking buffer (Odyssey Buffer with 0.1% Tween 20 (v/v)) were added to each plate and incubated 1 hour at room temperature. Blocking buffer was removed and 20 μL per well of primary antibody was added (mono-methyl arginine diluted 1:200 in Odyssey buffer with 0.1% Tween 20 (v/v)) and plates were incubated overnight (16 hours) at 4° C. Plates were washed 5 times with 100 μL per well of wash buffer. […] The plates were washed 5 times with 100 μL per well wash buffer then 2 times with 100 μL per well of water. Plates were allowed to dry at room temperature then imaged on the Licor Odyssey machine which measures integrated intensity at 700 nm and 800 nm wavelengths. Both 700 and 800 channels were scanned.
Calculations: First, the ratio for each well was determined by:
Each plate included fourteen control wells of DMSO only treatment (minimum activation) as well as fourteen control wells for maximum activation treated with 20 μM of a reference compound. The average of the ratio values for each control type was calculated and used to determine the percent activation for each test well in the plate. Reference compound was serially diluted three-fold in DMSO for a total of nine test concentrations, beginning at 20 μM. Percent activation was determined and EC30 curves were generated using triplicate wells per concentration of compound.

[2] = target: full-length human PRMT6 (Flag- and His-tagged) (Homo sapiens, UniProt Q96LA8); experiment: PRMT6 Biochemical Assay (3H-SAM Flashplate, peptide substrate)
Excerpt: General Materials. S-adenosylmethionine (SAM), S-adenosylhomocysteine (SAH), bicine, Tween20, dimethylsulfoxide (DMSO), bovine skin gelatin (BSG), sodium butyrate and Tris(2-carboxyethyl)phosphine hydrochloride solution (TCEP) were purchased from Sigma-Aldrich at the highest level of purity possible. ^3H-SAM was purchase from American Radiolabeled Chemicals with a specific activity of 80 Ci/mmol. 384-well streptavidin Flashplates were purchased from PerkinElmer.
Substrates. Peptide representative of human histone H4 residues 36-50 was synthesized with an N-terminal linker-affinity tag motif and a C-terminal amide cap by 21st Century Biochemicals. The peptide was purified by high-performance liquid chromatography (HPLC) to greater than 95% purity and confirmed by liquid chromatography mass spectrometry (LC-MS). The sequence was Biot-Ahx-[…]-amide and contained a monomethylated lysine at position 44 (SEQ ID NO.:5).
Molecular Biology: Full-length human PRMT6 (NM_018137.2) transcript clone was amplified from an HEK 293 cDNA library, incorporating a flanking 5′ sequence encoding a FLAG tag ([…]) (SEQ ID NO.:6) fused directly to Ser 2 of PRMT6 and a 3′ sequence encoding a hexa His sequence (HHHHHH) (SEQ ID NO.:17) fused directly to Asp 375. The amplified gene was subcloned into pFastBacMam (Viva Biotech).
Protein Expression. Recombinant baculovirus were generated according to Bac-to-Bac kit instructions (Life Technologies). […] Infections were carried out at 37° C. for 48 hours, harvested by centrifugation, and stored at −80° C. for purification.
Protein Purification. […] Column was washed with 20 mM imidazole in the same buffer and Flag-PRMT6-His was eluted with 150 mM imidazole. Pooled fractions were dialysed against buffer N^1-A and further purified by anti-flag M2 affinity chromatography. Flag-PRMT6-His was eluted with 200 ug/ml FLAG peptide in the same buffer. Pooled fractions were dialysed in 20 mM Tris, 150 mM NaCl, 10% glycerol and 5 mM β-mercaptoethanol, pH 7.8. The purity of recovered protein was 95%.
General Procedure for PRMT6 Enzyme Assays on Peptide Substrates. The assays were all performed in a buffer consisting of 20 mM Bicine (pH=7.6), 1 mM TCEP, 0.005% BSG, and 0.002% Tween 20, prepared on the day of use. Compounds in 100% DMSO (1 ul) were spotted into a polypropylene 384-well V-bottom plates (Greiner) using a Platemate Plus outfitted with a 384-channel head (Thermo Scientific). DMSO (1 ul) was added to Columns 11, 12, 23, 24, rows A-H for the maximum signal control and 1 ul of SAH, a known product and inhibitor of PRMT6, was added to columns 11, 12, 23, 24, rows I-P for the minimum signal control. A cocktail (40 ul) containing the PRMT6 enzyme was added by Multidrop Combi (Thermo-Fisher). The compounds were allowed to incubate with PRMT6 for 30 min at room temperature, then a cocktail (10 ul) containing SAM and peptide was added to initiate the reaction (final volume=51 ul). The final concentrations of the components were as follows: PRMT6 was 1 nM, ^3H-SAM was 200 nM, non-radiolabeled SAM was 250 nM, peptide was 75 nM, SAH in the minimum signal control wells was 1 mM, and the DMSO concentration was 2%. The assays were stopped by the addition of non-radiolabeled SAM (10 ul) to a final concentration of 400 uM, which dilutes the ^3H-SAM to a level where its incorporation into the peptide substrate is no longer detectable. 50 ul of the reaction in the 384-well polypropylene plate was then transferred to a 384-well Flashplate and the biotinylated peptides were allowed to bind to the streptavidin surface for at least 1 hour before being washed once with 0.1% Tween20 in a Biotek ELx405 plate washer. The plates were then read in a PerkinElmer TopCount plate reader to measure the quantity of ^3H-labeled peptide bound to the Flashplate surface, measured as disintegrations per minute (dpm) or alternatively, referred to as counts per minute (cpm). […]

[3] = 72 hours compound incubation, mono-methyl arginine signal normalised to DNA content (DRAQ5), percent activation vs 20 μM reference compound
[4] = 72 hours incubation, mono-methyl arginine signal normalised to DNA content, single experiment or average of multiple experiments
[5] = read-out: Biochemical IC50 PRMT6
[6] = single experiment or average of multiple experiments, read-out: Biochemical IC50 PRMT6

Sequence of full-length human PRMT6 (Flag- and His-tagged) (Q96LA8 with tags, fused parts or gaps): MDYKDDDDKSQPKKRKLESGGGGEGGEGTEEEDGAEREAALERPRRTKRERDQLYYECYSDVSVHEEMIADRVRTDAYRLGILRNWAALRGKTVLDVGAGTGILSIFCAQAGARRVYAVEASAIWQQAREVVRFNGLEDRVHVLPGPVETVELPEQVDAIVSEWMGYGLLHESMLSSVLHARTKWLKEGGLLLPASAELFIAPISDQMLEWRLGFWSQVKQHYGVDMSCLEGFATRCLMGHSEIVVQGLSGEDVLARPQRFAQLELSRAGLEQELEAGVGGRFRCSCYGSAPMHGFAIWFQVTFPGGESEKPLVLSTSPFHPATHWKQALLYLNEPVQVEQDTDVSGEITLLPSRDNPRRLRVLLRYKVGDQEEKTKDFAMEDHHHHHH

| SMILES | EC30 [1, 3] | EC30 [1, 4] | IC50 [2, 5] | IC50 [2, 6] | IC50 ([2]; Biochemical IC50 PRMT6) | IC50 ([2]; Biochemical IC50 PRMT6, single experiment or average of multiple experiments) |
| --- | --- | --- | --- | --- | --- | --- |
| CNCCN(C)Cc1c[nH]nc1[C@H]1CC[C@H](O)C2(CCCCC2)C1 (racemic) [Compound 184, (1S,4S)-4-[4-({methyl[2-(methylamino)ethyl]amino}methyl)-1H-pyrazol-3-yl] spiro[5.5]undecan-1-ol] | < 3000 nM | 458 nM | 101 to 1000 nM | 101 nM | – | – |
| CNCCN(C)Cc1c[nH]nc1[C@H]1CC[C@@H](O)C2(CCCCC2)C1 (single isomer, unassigned) [Compound 183] | < 3000 nM | 319 nM | < 100 nM | 87.7 nM | – | – |
| CN(CCN)Cc1c[nH]nc1CCc1ccccc1 [Compound 9] | 3010 to 12000 nM | 5610 nM | < 100 nM | 10 nM | – | – |
| CNCCN(C)Cc1c[nH]nc1[C@H]1CC[C@]2(CCC(C)(C)O2)CC1 [Compound 104] | < 3000 nM | 11.7 nM | < 100 nM | 40.5 nM | – | – |
| CNCCN(C)Cc1c[nH]nc1[C@H]1CC[C@@]2(CCOC2(C)C)CC1 [Compound 106, Methyl [2-(methylamino)ethyl]([3-[(5R,8R)-1,1-dimethyl-2-oxaspiro[4.5]decan-8-yl]-1H-pyrazol-4-yl]methyl)amine] | < 3000 nM | 22.7 nM | < 100 nM | 13.5 nM | – | – |
| CNCCN(C)Cc1c[nH]nc1[C@H]1CC[C@@H](N(CC2CCOCC2)C(=O)CC(C)C)CC1 [Compound 107] | – | – | 101 to 1000 nM | 130 nM | – | – |
| CCC(=O)N(CC1CCOCC1)[C@H]1CC[C@@H](c2n[nH]cc2CN(C)CCNC)CC1 [Compound 108] | 3010 to 12000 nM | 8550 nM | 101 to 1000 nM | 326 nM | – | – |
| CCC(=O)N(CC1CCOCC1)[C@H]1CC[C@H](c2n[nH]cc2CN(C)CCNC)CC1 [Compound 109] | < 3000 nM | 2480 nM | 101 to 1000 nM | 124 nM | – | – |
| CNCCN(C)Cc1c[nH]nc1C1CCC(=O)N(CCc2ccccc2)C1 (stereo not drawn) [Compound 110] | < 3000 nM | 2550 nM | < 100 nM | 29.4 nM | – | – |
| CNCCN(C)Cc1c[nH]nc1[C@H]1CC[C@]2(CCN(Cc3ccc(OCCOC)cc3)C2=O)CC1 [Compound 111] | < 3000 nM | 913 nM | < 100 nM | 45.5 nM | – | – |
| CNCCN(C)Cc1c[nH]nc1C1CCCC(COCCOC)C1 (stereo not drawn) [Compound 112] | – | – | < 100 nM | 57.4 nM | – | – |
| CNCCN(C)Cc1c[nH]nc1C1CCCC(COCCC(O)CO)C1 (stereo not drawn) [Compound 113] | 3010 to 12000 nM | 7350 nM | < 100 nM | 66.9 nM | – | – |
| CNCCN(C)Cc1c[nH]nc1C1CCC(N(CC(C)C)C(=O)CC2CCOCC2)CC1 (stereo not drawn) [Compound 114] | – | – | < 100 nM | 92.6 nM | – | – |
| CNCCN(C)Cc1c[nH]nc1C1CCC(=O)N(Cc2ccccc2)C1 (stereo not drawn) [Compound 115] | < 3000 nM | 18.9 nM | < 100 nM | 62.7 nM | – | – |
| CNCCN(C)Cc1c[nH]nc1[C@H]1CC[C@H](OCCOc2ccc(OCCOC)cc2)CC1 [Compound 116] | 3010 to 12000 nM | 8900 nM | – | – | < 100 nM | 18.7 nM |
| CNCCN(C)Cc1c[nH]nc1C1CCC(=O)N(CCC(C)C)C1 (stereo not drawn) [Compound 117] | – | – | < 100 nM | 96.2 nM | – | – |
| CNCCN(C)Cc1c[nH]nc1C1CC(OC(C)C)CC(OC(C)C)C1 (stereo not drawn) [Compound 118] | 3010 to 12000 nM | 9570 nM | > 10000 nM | > 10000 nM | – | – |
| CNCCN(C)Cc1c[nH]nc1C1CCC2(CC1)OC(C)CC(C)O2 (stereo not drawn) [Compound 121] | – | – | < 100 nM | 97.7 nM | – | – |
| CNCCN(C)Cc1c[nH]nc1C1CCC2(CC1)CCC(F)(F)CC2 [Compound 130] | – | – | < 100 nM | 4.2 nM | – | – |
| CCCOC1CC(OCCC)CC(c2n[nH]cc2CN(C)CCNC)C1 (stereo not drawn) [Compound 131] | – | – | > 10000 nM | > 10000 nM | – | – |
| CNCCN(C)Cc1c[nH]nc1C1CC(COC)CC(COC)C1 (stereo not drawn) [Compound 138] | – | – | 1010 to 3000 nM | 1210 nM | – | – |
| CNCCN(C)Cc1c[nH]nc1C1CCC2(CC1)NC(=O)N(C)C2=O (stereo not drawn) [Compound 170] | – | – | < 100 nM | 57.8 nM | – | – |
| CNCCN(C)Cc1c[nH]nc1[C@H]1CC[C@H](OCCOc2ccc(OC)cc2)CC1 [Compound 186] | – | – | 101 to 1000 nM | 107 nM | – | – |
